# Results: patent US8802597B2, “Herbicidal pyrimidines” (E I du Pont de Nemours and Company, priority 2003, dated 2014)
# Where two headings read alike, the source gives them in different places.
# Tests used:
# Type in all cases: in vivo
# [1] = test system: barnyardgrass (Echinochloa crus-galli); experiment: Test B flooded paddy test; settings: Echinochloa crus-galli, Flood, scale 0 to 100, read-out: Plant response rating, Barnyardgrass
# Method in brief: (§1)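 Rice, umbrella sedge, duck salad and barnyardgrass grown to 2-leaf stage under flooded paddy conditions and treated with formulated test chemicals. Kept in greenhouse 13–15 days, then visually rated against untreated controls on a 0–100 scale (0 no effect, 100 complete control).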
# rice (Oryza sativa) = experiment: Test B flooded paddy test; settings: Oryza sativa, Flood, scale 0 to 100, read-out: Plant response rating, Rice
# Method in brief: as §1
# [2] = test system: umbrella sedge (Cyperus difformis); experiment: Test B flooded paddy test; settings: Cyperus difformis, Flood, scale 0 to 100, read-out: Plant response rating, Sedge, Umbrella
# Method in brief: as §1
# [3] = test system: duck salad (Heteranthera limosa); experiment: Test B flooded paddy test; settings: Heteranthera limosa, Flood, scale 0 to 100, read-out: Plant response rating, Ducksalad
# Method in brief: as §1
# [4] = test system: velvetleaf (Abutilon theophrasti); experiment: Test B pre/postemergence; settings: Abutilon theophrasti; for pest or weed control at 62 g/ha: 62 g ai/ha; for pest or weed control at 125 g/ha: 125 g ai/ha
# Method in brief: (§2)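 Following sowing, compounds in a surfactant-bearing non-phytotoxic solvent were applied preemergence; emerged plants 2 to 18 cm high got postemergence treatment concurrently. Evaluation: 13 to 15 days later, greenhouse, 0–100 visual scale.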
# corn (Zea mays) = experiment: Test B pre/postemergence; settings: Zea mays
# Method in brief: as §2
# [5] = test system: crabgrass (Digitaria sanguinalis); experiment: Test B pre/postemergence; settings: Digitaria sanguinalis; for pest or weed control at 62 g/ha: 62 g ai/ha; for pest or weed control at 125 g/ha: 125 g ai/ha
# Method in brief: as §2
# [6] = test system: barnyardgrass (Echinochloa crus-galli); experiment: Test B pre/postemergence; settings: Echinochloa crus-galli, post-emergence, Postemergence, scale 0 to 100 (0 no effect, 100 complete control), read-out: Barnyardgrass plant response rating
# Method in brief: as §2
# [7] = test system: morningglory (Ipomoea coccinea); experiment: Test B pre/postemergence; settings: Ipomoea; for pest or weed control at 62 g/ha: 62 g ai/ha; for pest or weed control at 125 g/ha: 125 g ai/ha
# Method in brief: as §2
# [8] = test system: giant foxtail (Setaria faberii); experiment: Test B pre/postemergence; settings: Setaria faberi; for pest or weed control at 125 g/ha: 125 g ai/ha; for pest or weed control at 62 g/ha: 62 g ai/ha
# Method in brief: as §2
# [9] = test system: cocklebur (Xanthium strumarium); experiment: Test B pre/postemergence; settings: Xanthium strumarium; for pest or weed control at 62 g/ha: 62 g ai/ha; for pest or weed control at 125 g/ha: 125 g ai/ha
# Method in brief: as §2
# [10] = test system: lambsquarters (Chenopodium album); experiment: Test B pre/postemergence; settings: Chenopodium album, post-emergence, Postemergence, scale 0 to 100 (0 no effect, 100 complete control), read-out: Lambsquarters plant response rating
# Method in brief: as §2
# [11] = test system: pigweed (Amaranthus retroflexus); experiment: Test B pre/postemergence; settings: Amaranthus retroflexus, post-emergence, Postemergence, scale 0 to 100 (0 no effect, 100 complete control), read-out: Pigweed plant response rating
# Method in brief: as §2
# [12] = test system: wheat (Triticum aestivum); experiment: Test B pre/postemergence; settings: Triticum aestivum, scale 0 to 100 (0 no effect, 100 complete control); for plant injury at 62 g/ha: 62 g ai/ha; for plant injury at 125 g/ha: 125 g ai/ha
# Method in brief: as §2
# [13] = test system: Surinam grass (Brachiaria decumbens); experiment: Test B pre/postemergence; settings: Urochloa decumbens; for pest or weed control at 125 g/ha: 125 g ai/ha; for pest or weed control at 62 g/ha: 62 g ai/ha
# Method in brief: as §2
# wild oat (Avena fatua) = experiment: Test B postemergence; settings: Avena fatua, post-emergence, scale 0 to 100 (0 no effect, 100 complete control), read-out: Oat, Wild plant response rating
# Method in brief: as §2
# [14] = test system: blackgrass (Alopecurus myosuroides); experiment: Test B postemergence; settings: Alopecurus myosuroides, post-emergence, 62 g ai/ha, scale 0 to 100 (0 no effect, 100 complete control), read-out: Blackgrass plant response rating
# Method in brief: as §2
# [15] = post-emergence, Postemergence, scale 0 to 100 (0 no effect, 100 complete control), read-out: Velvetleaf plant response rating
# [16] = post-emergence, Postemergence, scale 0 to 100 (0 no effect, 100 complete control), read-out: Crabgrass plant response rating
# [17] = post-emergence, Postemergence, scale 0 to 100 (0 no effect, 100 complete control), read-out: Morningglory plant response rating
# [18] = post-emergence, Postemergence, scale 0 to 100 (0 no effect, 100 complete control), read-out: Foxtail, Giant plant response rating
# [19] = post-emergence, Postemergence, scale 0 to 100 (0 no effect, 100 complete control), read-out: Cocklebur plant response rating
# [20] = post-emergence, Postemergence, read-out: Wheat plant response rating
# [21] = pre-emergence, Preemergence, read-out: Plant response rating, Wheat
# [22] = post-emergence, Postemergence, scale 0 to 100 (0 no effect, 100 complete control), read-out: Surinam Grass plant response rating
structure (smiles),measurement,setting,value
"Nc1nc(-c2ccc(Br)cc2)nc(C(=O)O)c1Cl [Compound 95, 6-amino-2-(4-bromophenyl)-5-chloro-4-pyrimidinecarboxylic acid]",pest or weed control at 125 g/ha,[1]; 125 g ai/ha,0%
same,pest or weed control at 500 g/ha,[1]; 500 g ai/ha,30%
same,plant injury at 125 g/ha,rice (Oryza sativa); 125 g ai/ha,0%
same,plant injury at 500 g/ha,rice (Oryza sativa); 500 g ai/ha,40%
same,pest or weed control at 125 g/ha,[2]; 125 g ai/ha,90%
same,pest or weed control at 500 g/ha,[2]; 500 g ai/ha,90%
same,pest or weed control at 125 g/ha,[3]; 125 g ai/ha,90%
same,pest or weed control at 500 g/ha,[3]; 500 g ai/ha,100%
same,pest or weed control at 62 g/ha,[4]; [15],100%
same,pest or weed control at 125 g/ha,[4]; [15],100%
same,pest or weed control at 62 g/ha,"[4]; pre-emergence, Preemergence, scale 0 to 100, 0 no effect, 100 complete control, read-out: Plant response rating, Velvetleaf",80%
same,pest or weed control at 125 g/ha,"[4]; pre-emergence, Preemergence, scale 0 to 100 (0 no effect, 100 complete control), read-out: Plant response rating, Velvetleaf",100%
same,plant injury at 62 g/ha,"corn (Zea mays); post-emergence, Postemergence, 62 g ai/ha, scale 0 to 100 (0 no effect, 100 complete control), read-out: Corn plant response rating",80%
same,plant injury at 125 g/ha,"corn (Zea mays); post-emergence, Postemergence, 125 g ai/ha, scale 0 to 100 (0 no effect, 100 complete control), read-out: Corn plant response rating",90%
same,"Corn plant response rating (crop injury, 0 = no effect, 100 = complete kill) at 62 g/ha","corn (Zea mays); pre-emergence, Preemergence, 62 g ai/ha, scale 0 to 100, 0 no effect, 100 complete control",40%
same,"Corn plant response rating (crop injury, 0 = no effect, 100 = complete kill) at 125 g/ha","corn (Zea mays); pre-emergence, Preemergence, 125 g ai/ha, scale 0 to 100 (0 no effect, 100 complete control)",80%
same,pest or weed control at 62 g/ha,[5]; [16],80%
same,pest or weed control at 125 g/ha,[5]; [16],80%
same,pest or weed control at 62 g/ha,"[5]; pre-emergence, Preemergence, scale 0 to 100, 0 no effect, 100 complete control, read-out: Plant response rating, Crabgrass",80%
same,pest or weed control at 125 g/ha,"[5]; pre-emergence, Preemergence, scale 0 to 100 (0 no effect, 100 complete control), read-out: Plant response rating, Crabgrass",100%
same,pest or weed control at 62 g/ha,[6]; 62 g ai/ha,90%
same,pest or weed control at 125 g/ha,[6]; 125 g ai/ha,90%
same,pest or weed control at 62 g/ha,[7]; [17],90%
same,pest or weed control at 125 g/ha,[7]; [17],100%
same,pest or weed control at 62 g/ha,"[7]; pre-emergence, Preemergence, scale 0 to 100, 0 no effect, 100 complete control, read-out: Plant response rating, Morningglory",30%
same,pest or weed control at 125 g/ha,"[7]; pre-emergence, Preemergence, scale 0 to 100 (0 no effect, 100 complete control), read-out: Plant response rating, Morningglory",60%
same,pest or weed control at 125 g/ha,[8]; [18],80%
same,pest or weed control at 62 g/ha,[8]; [18],80%
same,pest or weed control at 125 g/ha,"[8]; pre-emergence, Preemergence, scale 0 to 100 (0 no effect, 100 complete control), read-out: Plant response rating, Foxtail, Giant",90%
same,pest or weed control at 62 g/ha,"[8]; pre-emergence, Preemergence, scale 0 to 100, 0 no effect, 100 complete control, read-out: Plant response rating, Foxtail, Giant",50%
same,pest or weed control at 62 g/ha,[9]; [19],90%
same,pest or weed control at 125 g/ha,[9]; [19],90%
same,pest or weed control at 62 g/ha,"[9]; pre-emergence, Preemergence, scale 0 to 100, 0 no effect, 100 complete control, read-out: Plant response rating, Cocklebur",90%
same,pest or weed control at 125 g/ha,"[9]; pre-emergence, Preemergence, scale 0 to 100 (0 no effect, 100 complete control), read-out: Plant response rating, Cocklebur",100%
same,pest or weed control at 62 g/ha,[10]; 62 g ai/ha,100%
same,pest or weed control at 125 g/ha,[10]; 125 g ai/ha,100%
same,pest or weed control at 62 g/ha,[11]; 62 g ai/ha,100%
same,pest or weed control at 125 g/ha,[11]; 125 g ai/ha,100%
same,plant injury at 62 g/ha,[12]; [20],40%
same,plant injury at 125 g/ha,[12]; [20],50%
same,plant injury at 62 g/ha,[12]; [21],70%
same,plant injury at 125 g/ha,[12]; [21],80%
same,pest or weed control at 125 g/ha,[13]; [22],90%
same,pest or weed control at 62 g/ha,[13]; [22],80%
same,pest or weed control at 125 g/ha,"[13]; pre-emergence, Preemergence, scale 0 to 100 (0 no effect, 100 complete control), read-out: Plant response rating, Surinam Grass",100%
same,pest or weed control at 62 g/ha,"[13]; pre-emergence, Preemergence, scale 0 to 100, 0 no effect, 100 complete control, read-out: Plant response rating, Surinam Grass",50%
same,pest or weed control at 62 g/ha,wild oat (Avena fatua); 62 g ai/ha,30%
same,pest or weed control at 125 g/ha,wild oat (Avena fatua); 125 g ai/ha,60%
same,pest or weed control at 62 g/ha,[14],60%
